# Laboratory results reported in PubChem BioAssay AID1259407 (Chemical Carcinogenesis Research Information System (CCRIS), 2018).
# Activity calls are given as the source filed them. How the calls were made is not given here.
# Tested on: CCRIS mutagenicity, Ames/micronucleus/aberration tests
# Assay: CCRIS mutagenicity studies
# [1] = Test System: AMES SALMONELLA TYPHIMURIUM, Strain/Indicator: TA98, Metabolic Activation: NONE, Method: PREINCUBATION
# [2] = Test System: AMES SALMONELLA TYPHIMURIUM, Strain/Indicator: TA100, Metabolic Activation: NONE, Method: PREINCUBATION
smiles,measurement,setting,value
OCCO,mutagenic call,"Test System: AMES SALMONELLA TYPHIMURIUM, Strain/Indicator: TA98, Metabolic Activation: HAMSTER, LIVER, S-9, AROCLOR 1254 (10%), Method: PREINCUBATION",inactive; negative
same,mutagenic call,[1],inactive; negative
same,mutagenic call,"Test System: AMES SALMONELLA TYPHIMURIUM, Strain/Indicator: TA98, Metabolic Activation: RAT LIVER S-9, PHENOBARBITAL AND BETA-NAPHTHOFLAVONE, Method: PREINCUBATION",inactive; negative
same,mutagenic call,"Test System: AMES SALMONELLA TYPHIMURIUM, Strain/Indicator: TA98, Metabolic Activation: RAT, LIVER, S-9, AROCLOR 1254 (10%), Method: PREINCUBATION",inactive; negative
same,mutagenic call,"Test System: AMES SALMONELLA TYPHIMURIUM, Strain/Indicator: TA100, Metabolic Activation: HAMSTER, LIVER, S-9, AROCLOR 1254 (10%), Method: PREINCUBATION",inactive; negative
same,mutagenic call,[2],inactive; negative
same,mutagenic call,"Test System: AMES SALMONELLA TYPHIMURIUM, Strain/Indicator: TA100, Metabolic Activation: RAT LIVER S-9, PHENOBARBITAL AND BETA-NAPHTHOFLAVONE, Method: PREINCUBATION",inactive; negative
same,mutagenic call,"Test System: AMES SALMONELLA TYPHIMURIUM, Strain/Indicator: TA100, Metabolic Activation: RAT, LIVER, S-9, AROCLOR 1254 (10%), Method: PREINCUBATION",inactive; negative
same,mutagenic call,"Test System: AMES SALMONELLA TYPHIMURIUM, Strain/Indicator: TA1535, Metabolic Activation: HAMSTER, LIVER, S-9, AROCLOR 1254 (10%), Method: PREINCUBATION",inactive; negative
same,mutagenic call,"Test System: AMES SALMONELLA TYPHIMURIUM, Strain/Indicator: TA1535, Metabolic Activation: NONE, Method: PREINCUBATION",inactive; negative
same,mutagenic call,"Test System: AMES SALMONELLA TYPHIMURIUM, Strain/Indicator: TA1535, Metabolic Activation: RAT LIVER S-9, PHENOBARBITAL AND BETA-NAPHTHOFLAVONE, Method: PREINCUBATION",inactive; negative
same,mutagenic call,"Test System: AMES SALMONELLA TYPHIMURIUM, Strain/Indicator: TA1535, Metabolic Activation: RAT, LIVER, S-9, AROCLOR 1254 (10%), Method: PREINCUBATION",inactive; negative
same,mutagenic call,"Test System: AMES SALMONELLA TYPHIMURIUM, Strain/Indicator: TA1537, Metabolic Activation: HAMSTER, LIVER, S-9, AROCLOR 1254 (10%), Method: PREINCUBATION",inactive; negative
same,mutagenic call,"Test System: AMES SALMONELLA TYPHIMURIUM, Strain/Indicator: TA1537, Metabolic Activation: NONE, Method: PREINCUBATION",inactive; negative
same,mutagenic call,"Test System: AMES SALMONELLA TYPHIMURIUM, Strain/Indicator: TA1537, Metabolic Activation: RAT LIVER S-9, PHENOBARBITAL AND BETA-NAPHTHOFLAVONE, Method: PREINCUBATION",inactive; negative
same,mutagenic call,"Test System: AMES SALMONELLA TYPHIMURIUM, Strain/Indicator: TA1537, Metabolic Activation: RAT, LIVER, S-9, AROCLOR 1254 (10%), Method: PREINCUBATION",inactive; negative
same,mutagenic call,"Test System: E.COLI, Strain/Indicator: WP2UVRA, Metabolic Activation: NONE, Method: PREINCUBATION",inactive; negative
same,mutagenic call,"Test System: E.COLI, Strain/Indicator: WP2UVRA, Metabolic Activation: RAT LIVER S-9, PHENOBARBITAL AND BETA-NAPHTHOFLAVONE, Method: PREINCUBATION",inactive; negative
same,mutagenic call,"Test System: MOUSE LYMPHOMA, Strain/Indicator: L5178Y (TK+/TK-), Metabolic Activation: NONE, Method: SUSPENSION/PLATE",inactive; negative
same,mutagenic call,"Test System: MOUSE LYMPHOMA, Strain/Indicator: L5178Y (TK+/TK-), Metabolic Activation: RAT, LIVER, S-9, AROCLOR 1254, Method: SUSPENSION/PLATE",inactive; negative
O=[N+]([O-])c1cccc2oc3ccccc3c12,mutagenic call,"Test System: AMES SALMONELLA TYPHIMURIUM, Strain/Indicator: TA98(1,8-DNP6), Metabolic Activation: NONE, Method: PREINCUBATION",inactive; negative
same,mutagenic call,"Test System: AMES SALMONELLA TYPHIMURIUM, Strain/Indicator: TA98(1,8-DNP6), Metabolic Activation: NONE, Method: SUSPENSION",inactive; negative
same,mutagenic call,"Test System: AMES SALMONELLA TYPHIMURIUM, Strain/Indicator: TA98(1,8-DNP6), Metabolic Activation: RAT, LIVER, S-9, PCB (5%), Method: PREINCUBATION",inactive; negative
same,mutagenic call,"Test System: AMES SALMONELLA TYPHIMURIUM, Strain/Indicator: TA98(NR), Metabolic Activation: NONE, Method: PREINCUBATION",inactive; negative
same,mutagenic call,"Test System: AMES SALMONELLA TYPHIMURIUM, Strain/Indicator: TA98(NR), Metabolic Activation: NONE, Method: SUSPENSION",inactive; negative
same,mutagenic call,"Test System: AMES SALMONELLA TYPHIMURIUM, Strain/Indicator: TA98(NR), Metabolic Activation: RAT, LIVER, S-9 (10%), Method: PREINCUBATION",inactive; negative
same,mutagenic call,"Test System: AMES SALMONELLA TYPHIMURIUM, Strain/Indicator: TA98(NR), Metabolic Activation: RAT, LIVER, S-9, 3-METHYLCHOLANTHRENE (10%), Method: PREINCUBATION",active; positive
same,mutagenic call,"Test System: AMES SALMONELLA TYPHIMURIUM, Strain/Indicator: TA98(NR), Metabolic Activation: RAT, LIVER, S-9, BETA-NAPHTHOFLAVONE (10%), Method: PREINCUBATION",inactive; negative
same,mutagenic call,"Test System: AMES SALMONELLA TYPHIMURIUM, Strain/Indicator: TA98(NR), Metabolic Activation: RAT, LIVER, S-9, PCB (5%), Method: PREINCUBATION",inactive; negative
same,mutagenic call,"Test System: AMES SALMONELLA TYPHIMURIUM, Strain/Indicator: TA98(NR), Metabolic Activation: RAT, LIVER, S-9, PCB (10%), Method: PREINCUBATION",inactive; negative
same,mutagenic call,"Test System: AMES SALMONELLA TYPHIMURIUM, Strain/Indicator: TA98(NR), Metabolic Activation: RAT, LIVER, S-9, PHENOBARBITAL (10%), Method: PREINCUBATION",inactive; negative
same,mutagenic call,[1],inactive; negative
same,mutagenic call,"Test System: AMES SALMONELLA TYPHIMURIUM, Strain/Indicator: TA98, Metabolic Activation: NONE, Method: SUSPENSION",inactive; negative
same,mutagenic call,"Test System: AMES SALMONELLA TYPHIMURIUM, Strain/Indicator: TA98, Metabolic Activation: RAT, LIVER, S-9, PCB (5%), Method: PREINCUBATION",inactive; negative
same,mutagenic call,"Test System: AMES SALMONELLA TYPHIMURIUM, Strain/Indicator: TA98, Metabolic Activation: RAT, LIVER, S-9, PCB, Method: SUSPENSION",inactive; negative
same,mutagenic call,[2],inactive; negative
same,mutagenic call,"Test System: AMES SALMONELLA TYPHIMURIUM, Strain/Indicator: TA100, Metabolic Activation: NONE, Method: SUSPENSION",inactive; negative
same,mutagenic call,"Test System: AMES SALMONELLA TYPHIMURIUM, Strain/Indicator: TA100, Metabolic Activation: RAT, LIVER, S-9, PCB (5%), Method: PREINCUBATION",inactive; negative
same,mutagenic call,"Test System: AMES SALMONELLA TYPHIMURIUM, Strain/Indicator: TA100, Metabolic Activation: RAT, LIVER, S-9, PCB, Method: SUSPENSION",inactive; negative
O[C@@H]1[C@H]2O[C@H]2c2c(ccc3cc4c(ccc5ccccc54)nc23)[C@H]1O,mutagenic call,[1],active; positive
same,mutagenic call,[2],active; positive
same,mutagenic call,"Test System: CHINESE HAMSTER V-79, Strain/Indicator: V-79/8-AZAGUANINE, Metabolic Activation: NONE",active; positive
N[C@@H](CCC(=O)N(CC(=O)O)C(=O)[C@@H](N)CSCCCl)C(=O)O,mutagenic call,"Test System: AMES SALMONELLA TYPHIMURIUM, Strain/Indicator: TA100, Metabolic Activation: NONE, Method: STANDARD PLATE",active; positive
